Data taken from US20090011051A1, “Methods, Compositions and Articles of Manufacture for HIF Modulating Compounds” (priority 2006, published 2009).
Like-named read-outs stand apart in the source and are kept apart here.

Columns and labels:
humans [1] = settings: cited from earlier work
[2] = test system: nematodes (Caenorhabditis elegans)
Protocol: Nematodes of each strain in the fourth larval stage were moved onto fresh nematode growth plates. […] The nematodes were removed the next morning and the percent surviving nematodes was determined.

[3] = test system: nematodes (Caenorhabditis elegans); assay: Survival of C. elegans in H2S after pre-treatment with H2S gas (Example 2); type: in vivo; settings: air plus 200 ppm H2S
rodents = settings: H2S gas; cited from earlier work
humans [4] = settings: H2S gas; cited from earlier work
[5] = extreme levels (500 ppm), followed by recovery; cited from earlier work
humans [6] = settings: chronic low-level exposure; cited from earlier work
rats [7] = settings: cited from earlier work
rats [8] = settings: moderate levels, cited from earlier work

Compound	symptoms (humans [1]; 50 ppm, humans)	symptoms (humans [1]; 200 ppm, within two-three hours)	symptoms (humans [1]; 400 ppm, within one to two hours, may become widespread within three hours)	symptoms (humans [1]; 800 ppm, within 45 minutes)	symptoms (humans [1]; 800 ppm, within two hours)	lethality (humans [1]; around 1000 ppm, an organism, exposure for more than around 1-2 minutes)	percent surviving nematodes ([2]; nematodes lacking the Egl-9 gene, air plus 100 ppm H2S, in contrast to wild type)	percent surviving nematodes ([2]; nematodes lacking the Hif-1 gene, fourth larval stage, air plus 20 ppm H2S, removed next morning)	percent surviving nematodes ([2]; wild type nematodes, fourth larval stage, air plus 20 ppm H2S, removed next morning)	percent surviving nematodes ([3]; Egl-9 mutant nematodes)	percent surviving nematodes ([3]; wild type nematodes raised in air)	LD50 (rodents)	LD50 (humans [4])	effect of acute exposure (knockdown effect) [5]	effects of chronic exposure (humans [6])	neuropathology and behavior of exposed rat pups (rats [7]; perinatal study, 80 ppm)	cerebellar Purkinje cell morphology (rats [7]; rats, 20 or 50 ppm, 7 hours per day from gestation through post-natal day 21)	discriminated avoidance responses (rats [8]; immediately after the end of the exposure)	learning of baited radial arm maze task (rats [8])
[C-]#[O+] [carbon monoxide, Carbon monoxide]	no symptoms	slight headache	frontal headache	dizziness, nausea, and/or convulsions	insensible	can expire													
S [Compound H2S, Hydrogen sulfide]							survived	unable to survive	able to survive	survived	unable to survive	approximately 700 ppm	approximately 700 ppm	sudden collapse and unconsciousness	persistent impairments in balance and memory, as well as altered sensory motor functions	no neuropathological effects or altered motor activity, passive avoidance, or acoustic startle response	longer dendritic branches with reduced aborization of cerebellar Purkinje cells	inhibits discriminated avoidance responses	interferes with the ability of rats to learn a baited radial arm maze task
